According to patent US11427549B2, “Pyrimidinyloxy benzo-fused compounds as herbicides” (FMC Corporation, priority 2017, dated 2022):

Columns and labels:
[1] = tested on: rice (Oryza sativa); assay: Test B flooded paddy test, rice; settings: Oryza sativa, read-out: Plant response rating, Rice (0 to 100 scale, 0 is no effect, 100 is complete control)
[2] = tested on: ragweed (common ragweed, Ambrosia elatior); assay: Test A preemergence, ragweed; assay type: in vivo; settings: Ambrosia artemisiifolia, pre-emergence, 240 h, 0 to 100 scale (0 no effect, 100 complete control), read-out: Plant response rating, Ragweed; for pest or weed control at 125 g/ha: 125 g ai/ha
[3] = tested on: pigweed (Amaranthus retroflexus); assay: Test A postemergence, pigweed; assay type: in vivo; settings: Amaranthus retroflexus, post-emergence, 240 h, 0 to 100 scale (0 no effect, 100 complete control), read-out: Plant response rating, Pigweed; for pest or weed control at 125 g/ha: 125 g ai/ha
[4] = tested on: foxtail, green (green foxtail, Setaria viridis); assay: Test A postemergence, foxtail, green; assay type: in vivo; settings: Setaria, post-emergence, 240 h, 0 to 100 scale (0 no effect, 100 complete control), read-out: Plant response rating, Foxtail, Green; for pest or weed control at 125 g/ha: 125 g ai/ha
[5] = tested on: kochia (Kochia scoparia); assay: Test A preemergence, kochia; assay type: in vivo; settings: Bassia scoparia, pre-emergence, 240 h, 0 to 100 scale (0 no effect, 100 complete control), read-out: Plant response rating, Kochia; for pest or weed control at 125 g/ha: 125 g ai/ha
[6] = tested on: barnyardgrass (Echinochloa crus-galli); assay: Test B flooded paddy test, barnyardgrass; settings: Echinochloa crus-galli, read-out: Plant response rating, Barnyardgrass (0 to 100 scale, 0 is no effect, 100 is complete control)
[7] = tested on: ryegrass, Italian (Italian ryegrass, Lolium multiflorum); assay: Test A preemergence, ryegrass, Italian; assay type: in vivo; settings: Lolium multiflorum, pre-emergence, 240 h, 0 to 100 scale (0 no effect, 100 complete control), read-out: Plant response rating, Ryegrass, Italian; for pest or weed control at 125 g/ha: 125 g ai/ha
[8] = tested on: ducksalad (Heteranthera limosa); assay: Test B flooded paddy test, ducksalad; settings: Heteranthera limosa, read-out: Plant response rating, Ducksalad (0 to 100 scale, 0 is no effect, 100 is complete control)
[9] = tested on: barnyardgrass (Echinochloa crus-galli); assay: Test A postemergence, barnyardgrass; assay type: in vivo; settings: Echinochloa crus-galli, post-emergence, 240 h, 0 to 100 scale (0 no effect, 100 complete control), read-out: Plant response rating, Barnyardgrass; for pest or weed control at 125 g/ha: 125 g ai/ha
[10] = tested on: kochia (Kochia scoparia); assay: Test A postemergence, kochia; assay type: in vivo; settings: Bassia scoparia, post-emergence, 240 h, 0 to 100 scale (0 no effect, 100 complete control), read-out: Plant response rating, Kochia; for pest or weed control at 125 g/ha: 125 g ai/ha
[11] = tested on: ragweed (common ragweed, Ambrosia elatior); assay: Test A postemergence, ragweed; assay type: in vivo; settings: Ambrosia artemisiifolia, post-emergence, 240 h, 0 to 100 scale (0 no effect, 100 complete control), read-out: Plant response rating, Ragweed; for pest or weed control at 125 g/ha: 125 g ai/ha
[12] = tested on: wheat (Triticum aestivum); assay: Test A postemergence, wheat; assay type: in vivo; settings: Triticum aestivum, post-emergence, 240 h, 0 to 100 scale (0 no effect, 100 complete control), read-out: Plant response rating, Wheat; for plant injury at 125 g/ha: 125 g ai/ha
[13] = tested on: pigweed (Amaranthus retroflexus); assay: Test A preemergence, pigweed; assay type: in vivo; settings: Amaranthus retroflexus, pre-emergence, 240 h, 0 to 100 scale (0 no effect, 100 complete control), read-out: Plant response rating, Pigweed; for pest or weed control at 125 g/ha: 125 g ai/ha
[14] = tested on: galium (catchweed bedstraw, Galium aparine); assay: Test A postemergence, galium; assay type: in vivo; settings: Galium, post-emergence, 240 h, 0 to 100 scale (0 no effect, 100 complete control), read-out: Plant response rating, Galium; for pest or weed control at 125 g/ha: 125 g ai/ha
[15] = tested on: blackgrass (Alopecurus myosuroides); assay: Test A postemergence, blackgrass; assay type: in vivo; settings: Alopecurus myosuroides, post-emergence, 240 h, 0 to 100 scale (0 no effect, 100 complete control), read-out: Plant response rating, Blackgrass; for pest or weed control at 125 g/ha: 125 g ai/ha
[16] = tested on: ryegrass, Italian (Italian ryegrass, Lolium multiflorum); assay: Test A postemergence, ryegrass, Italian; assay type: in vivo; settings: Lolium multiflorum, post-emergence, 240 h, 0 to 100 scale (0 no effect, 100 complete control), read-out: Plant response rating, Ryegrass, Italian; for pest or weed control at 125 g/ha: 125 g ai/ha
[17] = tested on: barnyardgrass (Echinochloa crus-galli); assay: Test A preemergence, barnyardgrass; assay type: in vivo; settings: Echinochloa crus-galli, pre-emergence, 240 h, 0 to 100 scale (0 no effect, 100 complete control), read-out: Plant response rating, Barnyardgrass; for pest or weed control at 125 g/ha: 125 g ai/ha
[18] = tested on: corn (Zea mays); assay: Test A postemergence, corn; assay type: in vivo; settings: Zea mays, post-emergence, 240 h, 0 to 100 scale (0 no effect, 100 complete control); for Corn plant response rating (crop injury, 0 = no effect, 100 = complete kill) at 125 g/ha: 125 g ai/ha

SMILES	plant injury at 250 g/ha [1]	pest or weed control at 125 g/ha [2]	pest or weed control at 125 g/ha [3]	pest or weed control at 125 g/ha [4]	pest or weed control at 125 g/ha [5]	pest or weed control at 250 g/ha [6]	pest or weed control at 125 g/ha [7]	pest or weed control at 250 g/ha [8]	pest or weed control at 125 g/ha [9]	pest or weed control at 125 g/ha [10]	pest or weed control at 125 g/ha [11]	plant injury at 125 g/ha [12]	pest or weed control at 125 g/ha [13]	pest or weed control at 125 g/ha [14]	pest or weed control at 125 g/ha [15]	pest or weed control at 125 g/ha [16]	pest or weed control at 125 g/ha [17]	Corn plant response rating (crop injury, 0 = no effect, 100 = complete kill) at 125 g/ha [18]	also measured
O=C1OC(CCCC(F)(F)F)c2c(Oc3ncc(Cl)cn3)cccc21 (stereo not drawn) [Compound 1, 4-[(5-Chloro-2-pyrimidinyl)oxy]-3-(4,4,4-trifluorobutyl)-1(3H)-isobenzofuranone]	0%	80%	100%	90%	100%	0%	80%	20%	70%	100%	10%	30%	100%	100%	40%	50%	100%	40%	pest or weed control at 500 g/ha ([2]; 500 g ai/ha): 90%; pest or weed control at 500 g/ha ([3]; 500 g ai/ha): 100%; pest or weed control at 500 g/ha ([4]; 500 g ai/ha): 100%; pest or weed control at 500 g/ha ([5]; 500 g ai/ha): 100%; pest or weed control at 500 g/ha ([7]; 500 g ai/ha): 100%; pest or weed control at 500 g/ha ([9]; 500 g ai/ha): 80%; pest or weed control at 500 g/ha ([10]; 500 g ai/ha): 100%; pest or weed control at 500 g/ha ([11]; 500 g ai/ha): 40%; plant injury at 500 g/ha ([12]; 500 g ai/ha): 80%; pest or weed control at 500 g/ha ([13]; 500 g ai/ha): 100%; pest or weed control at 500 g/ha ([14]; 500 g ai/ha): 100%; pest or weed control at 500 g/ha ([15]; 500 g ai/ha): 100%; pest or weed control at 500 g/ha ([16]; 500 g ai/ha): 80%; pest or weed control at 500 g/ha ([17]; 500 g ai/ha): 100%; Corn plant response rating (crop injury, 0 = no effect, 100 = complete kill) at 500 g/ha ([18]; 500 g ai/ha): 60%
O=C1O[C@H](CCCC(F)(F)F)c2c(Oc3ncc(Cl)cn3)cccc21 [Compound 3, (3R)-4-[(5-Chloro-2-pyrimidinyl)oxy]-3-(4,4,4-trifluorobutyl)-1-(3H)-isobenzofuranone]	60%	0%	100%	100%	100%	60%	100%	90%	90%	100%	60%	90%	100%	100%	100%	100%	100%	80%	pest or weed control at 31 g/ha ([2]; 31 g ai/ha): 0%; pest or weed control at 31 g/ha ([3]; 31 g ai/ha): 100%; pest or weed control at 31 g/ha ([4]; 31 g ai/ha): 40%; pest or weed control at 31 g/ha ([5]; 31 g ai/ha): 80%; pest or weed control at 31 g/ha ([7]; 31 g ai/ha): 70%; pest or weed control at 31 g/ha ([9]; 31 g ai/ha): 30%; pest or weed control at 31 g/ha ([10]; 31 g ai/ha): 90%; pest or weed control at 31 g/ha ([11]; 31 g ai/ha): 10%; plant injury at 31 g/ha ([12]; 31 g ai/ha): 60%; pest or weed control at 31 g/ha ([13]; 31 g ai/ha): 100%; pest or weed control at 31 g/ha ([14]; 31 g ai/ha): 100%; pest or weed control at 31 g/ha ([15]; 31 g ai/ha): 80%; pest or weed control at 31 g/ha ([16]; 31 g ai/ha): 40%; pest or weed control at 31 g/ha ([17]; 31 g ai/ha): 90%; Corn plant response rating (crop injury, 0 = no effect, 100 = complete kill) at 31 g/ha ([18]; 31 g ai/ha): 50%
